Assay results reported in patent US6495544B2, “Homoiminopiperidinyl hexanoic acid inhibitors of inducible nitric oxide synthase” (Pharmacia Corporation, priority 2000, dated 2002).

How the values were obtained:
[1] = target: T1, human neuronal constitutive NOS (hncNOS) (Homo sapiens, UniProt P29475); experiment: Citrulline assay for nitric oxide synthase, hncNOS; assay type: biochemical; conditions: 30 μM L-arginine, 37° C., 15 minutes, calmodulin
T1 construct: made in house; host or cells: Sf9 insect cells, baculovirus vector
Experimental: (§1) Nitric oxide synthase (NOS) activity is measured by monitoring the conversion of [^3H]-arginine to [^3H]-citrulline (Bredt and Snyder, Proc. Natl. Acad. Sci. U.S.A., 87, 682-685, 1990 and Misko et al, Eur. J. Pharm., 233, 119-125, 1993). Human inducible NOS (hiNOS), human endothelial constitutive NOS (hecNOS) and human neuronal constitutive NOS (hncNOS) are each cloned from RNA extracted from human tissue. The cDNA for human inducible NOS (hiNOS) is isolated from a lambda cDNA library made from RNA extracted from a colon sample from a patient with ulcerative colitis. The cDNA for human endothelial constitutive NOS (hecNOS) is isolated from a lambda cDNA library made from RNA extracted from human umbilical vein endothelial cells (HUVEC) and the cDNA for human neuronal constitutive NOS (hncNOS) is isolated from a lambda cDNA library made from RNA extracted from human cerebellum obtained from a cadaver. The recombinant enzymes are expressed in Sf9 insect cells using a baculovirus vector (Rodi et al, in The Biology of Nitric Oxide , Pt. 4: Enzymology Biochemistry and Immunology; Moncada, S., Feelisch, M., Busse, R., Higgs, E., Eds.; Portland Press Ltd.: London, 1995; pp 447-450). Enzyme activity is isolated from soluble cell extracts and partially purified by DEAE-Sepharose chromatography. To measure NOS activity, 10 μL of enzyme is added to 40 μL of 50 mM Tris (pH 7.6) in the presence or absence of test compounds and the reaction initiated by the addition of 50 μL of a reaction mixture containing 5 mM Tris (pH 7.6), 2.0 mg/mL bovine serum albumin, 2.0 mM DTT, 4.0 mM CaCl2, 20 μM FAD, 100 PM tetrahydrobiopterin, 0.4-2.0 mM NADPH and 60 μM L-arginine containing 0.9 μCi of L-[2,3-^3H]-arginine. The final concentration of L-arginine in the assay is 30 μM. For hecNOS or hncNOS, calmodulin is included at a final concentration of 40-100 nM. […] [3H]-Citrulline is separated by chromatography on Dowex 50W X-8 cation exchange resin and radioactivity determined with a liquid scintillation counter. […]

[2] = target: T2, human endothelial constitutive NOS (hecNOS) (Homo sapiens, UniProt P29474); experiment: Citrulline assay for nitric oxide synthase, hecNOS; assay type: biochemical; conditions: 30 μM L-arginine, 37° C., 15 minutes, calmodulin
T2 construct: made in house; host or cells: Sf9 insect cells, baculovirus vector
Experimental: as §1

[3] = target: T3, hncNOS (Homo sapiens, UniProt P29475); experiment: Assay for time dependent inhibition, hncNOS; assay type: biochemical; conditions: 60 min preincubation
T3 construct: made in house; host or cells: Sf9 insect cells, baculovirus vector
T3 sequence (P29475 whole entry): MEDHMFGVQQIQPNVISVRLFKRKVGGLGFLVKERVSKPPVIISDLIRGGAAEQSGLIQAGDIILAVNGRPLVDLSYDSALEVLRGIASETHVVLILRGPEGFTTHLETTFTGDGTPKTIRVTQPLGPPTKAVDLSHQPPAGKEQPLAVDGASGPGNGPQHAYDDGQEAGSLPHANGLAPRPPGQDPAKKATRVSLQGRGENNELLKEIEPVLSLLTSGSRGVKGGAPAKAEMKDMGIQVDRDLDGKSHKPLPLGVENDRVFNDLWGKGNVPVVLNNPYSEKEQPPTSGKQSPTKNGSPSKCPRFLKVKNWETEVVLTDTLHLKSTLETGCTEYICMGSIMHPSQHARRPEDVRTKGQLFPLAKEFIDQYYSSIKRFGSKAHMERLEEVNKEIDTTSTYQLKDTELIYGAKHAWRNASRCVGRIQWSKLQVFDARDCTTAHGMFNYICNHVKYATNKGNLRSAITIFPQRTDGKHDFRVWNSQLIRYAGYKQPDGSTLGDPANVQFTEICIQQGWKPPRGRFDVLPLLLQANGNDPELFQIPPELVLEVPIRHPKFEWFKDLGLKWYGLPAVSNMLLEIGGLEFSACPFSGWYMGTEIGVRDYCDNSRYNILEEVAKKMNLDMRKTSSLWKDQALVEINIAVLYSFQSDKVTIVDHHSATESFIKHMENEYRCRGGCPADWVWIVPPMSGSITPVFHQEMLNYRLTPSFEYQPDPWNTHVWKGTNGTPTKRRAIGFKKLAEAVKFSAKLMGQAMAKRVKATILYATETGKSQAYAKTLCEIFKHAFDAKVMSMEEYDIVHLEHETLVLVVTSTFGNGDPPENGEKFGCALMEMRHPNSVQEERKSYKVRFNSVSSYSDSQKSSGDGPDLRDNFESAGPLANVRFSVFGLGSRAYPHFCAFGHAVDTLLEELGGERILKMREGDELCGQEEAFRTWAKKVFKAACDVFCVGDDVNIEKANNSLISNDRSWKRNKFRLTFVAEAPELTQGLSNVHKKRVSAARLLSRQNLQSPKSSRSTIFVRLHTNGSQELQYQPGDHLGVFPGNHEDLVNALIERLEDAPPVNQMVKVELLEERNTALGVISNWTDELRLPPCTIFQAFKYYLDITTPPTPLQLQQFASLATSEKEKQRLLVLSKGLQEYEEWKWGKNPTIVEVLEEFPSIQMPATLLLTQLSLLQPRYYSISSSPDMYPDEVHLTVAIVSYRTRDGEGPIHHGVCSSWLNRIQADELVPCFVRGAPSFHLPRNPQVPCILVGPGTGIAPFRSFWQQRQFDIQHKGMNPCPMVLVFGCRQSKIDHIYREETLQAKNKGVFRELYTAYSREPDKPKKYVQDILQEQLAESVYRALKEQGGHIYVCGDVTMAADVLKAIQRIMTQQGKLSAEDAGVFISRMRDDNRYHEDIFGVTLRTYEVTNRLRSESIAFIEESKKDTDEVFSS
Experimental: as §1

[4] = target: T4, Human inducible NOS (hiNOS) (Homo sapiens, UniProt P35228); experiment: Citrulline assay for nitric oxide synthase, hiNOS; assay type: biochemical; conditions: 30 μM L-arginine, 37° C., 15 minutes
T4 construct: made in house; host or cells: Sf9 insect cells, baculovirus vector
Experimental: as §1

[5] = system: nitric oxide synthase induced by recombinant human IL-1β in human cartilage explants; experiment: Human cartilage explant assay, nitrite production; assay type: cell-based; conditions: IL-1β stimulated, read-out: IC50, inhibition of nitrite production
Experimental: Bone pieces are rinsed twice with Dulbecco's Phosphate Buffered Saline (GibcoBRL) and once with Dulbecco's Modified Eagles Medium (GibcoBRL) and placed into a petri dish with phenol red free Minimum Essential Medium (MEM) (GibcoBRL). Cartilage was cut into small explants of approximately 25-45 mg in weight and one or two explants per well are placed into 48 well culture plates with 500 μL of culture media per well. The culture media was either a custom modification of Minimum Essential Medium(Eagle) with Earle's salts (GibcoBRL) prepared without L-Arginine, without L-Glutamine and without phenol red or a custom modification of serumless Neuman and Tytell (GibcoBRL) medium prepared without L-arginine, without insulin, without ascorbic acid, without L-glutamine and without phenol red. Both are supplemented before use with 100 μM L-Arginine (Sigma), 2 mM L-glutamine, 1×HL-1 supplement (BioWhittaker), […] ascorbic acid (Sigma) and 150 pg/ml recombinant human IL-1β (RD Systems) to induce nitric oxide synthase. Compounds are then added in 10 μL aliquots and the explants incubated at 37° C. with 5% CO2 for 18-24 hours. […] This supernatant is analyzed for nitrite with a fluorometric assay (Misko et al, Anal. Biochem., 214, 11-16, 1993). […] IC50 values (Table III) are determined from plotting the percent inhibition of nitrite production at six different concentrations of inhibitor.

[6] = system: inducible nitric oxide synthase; experiment: In vivo assay, endotoxin-treated rats, plasma nitrite/nitrate; conditions: oral; for ED50: Rattus norvegicus, read-out: ED50, inhibition of LPS-induced increase in plasma nitrite/nitrate
Experimental: Compounds are administered orally 0.5-1 hours prior to LPS administration and plasma nitrite/nitrate levels are determined 5 hours following LPS administration.

[7] = target: T5, hecNOS (Homo sapiens, UniProt P29474); experiment: Assay for time dependent inhibition, hecNOS; assay type: biochemical; conditions: 60 min preincubation, read-out: % inhibition of NOS activity, hecNOS
T5 construct: made in house; host or cells: Sf9 insect cells, baculovirus vector
T5 sequence (P29474 2-1203): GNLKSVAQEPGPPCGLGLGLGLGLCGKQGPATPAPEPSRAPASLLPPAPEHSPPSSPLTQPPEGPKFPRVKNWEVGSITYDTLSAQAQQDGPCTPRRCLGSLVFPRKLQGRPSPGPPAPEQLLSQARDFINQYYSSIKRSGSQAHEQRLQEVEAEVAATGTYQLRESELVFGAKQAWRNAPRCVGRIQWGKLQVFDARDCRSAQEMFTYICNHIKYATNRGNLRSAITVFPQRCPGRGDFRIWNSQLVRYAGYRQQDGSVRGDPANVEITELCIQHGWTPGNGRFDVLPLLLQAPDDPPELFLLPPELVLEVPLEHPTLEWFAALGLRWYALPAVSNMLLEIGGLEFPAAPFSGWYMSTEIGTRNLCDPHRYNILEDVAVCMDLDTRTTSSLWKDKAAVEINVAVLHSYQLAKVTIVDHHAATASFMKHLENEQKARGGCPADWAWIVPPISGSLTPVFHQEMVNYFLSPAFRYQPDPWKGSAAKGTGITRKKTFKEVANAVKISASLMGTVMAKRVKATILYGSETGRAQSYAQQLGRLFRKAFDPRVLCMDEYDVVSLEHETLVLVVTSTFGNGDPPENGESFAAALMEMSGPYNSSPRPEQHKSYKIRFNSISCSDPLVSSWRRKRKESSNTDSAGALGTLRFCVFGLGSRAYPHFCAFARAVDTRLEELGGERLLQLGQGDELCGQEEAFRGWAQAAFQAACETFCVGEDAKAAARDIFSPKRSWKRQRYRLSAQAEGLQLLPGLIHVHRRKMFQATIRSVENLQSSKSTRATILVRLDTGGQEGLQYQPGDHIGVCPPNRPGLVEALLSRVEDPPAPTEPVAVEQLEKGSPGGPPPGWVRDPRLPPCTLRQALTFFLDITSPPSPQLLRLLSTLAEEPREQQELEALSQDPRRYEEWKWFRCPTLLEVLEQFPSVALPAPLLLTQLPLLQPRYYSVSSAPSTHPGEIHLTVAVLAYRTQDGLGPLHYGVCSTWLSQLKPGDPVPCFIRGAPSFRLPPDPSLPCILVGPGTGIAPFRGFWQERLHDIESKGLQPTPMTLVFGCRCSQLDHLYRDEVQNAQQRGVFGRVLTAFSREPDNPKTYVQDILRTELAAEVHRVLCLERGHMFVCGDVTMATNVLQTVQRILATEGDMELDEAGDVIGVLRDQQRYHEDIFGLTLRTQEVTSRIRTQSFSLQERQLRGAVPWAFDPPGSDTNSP
Experimental: as §1, with “447-450).” for “447-450). Enzyme activity is isolated from soluble cell extracts and partially purified by DEAE-Sepharose chromatography. To measure NOS activity, 10 μL of enzyme is added to 40 μL of 50 mM Tris (pH 7.6) in the presence or absence of test compounds and the reaction initiated by the addition of 50 μL of a reaction mixture containing 5 mM Tris (pH 7.6), 2.0 mg/mL bovine serum albumin, 2.0 mM DTT, 4.0 mM CaCl2, 20 μM FAD, 100 PM tetrahydrobiopterin, 0.4-2.0 mM NADPH and 60 μM L-arginine containing 0.9 μCi of L-[2,3-^3H]-arginine. The final concentration of L-arginine in the assay is 30 μM. For hecNOS or hncNOS, calmodulin is included at a final concentration of 40-100 nM.”

[8] = 0.5-1 hours prior to LPS, plasma 5 hours after LPS

Row | Compound | IC50 [1] [µM] | IC50 [2] [µM] | % inhibition of NOS activity, hncNOS ([3]; 13 μM) [% @ 13 μM @ 60 min] | IC50 [4] [µM] | % inhibition of NOS activity, hncNOS ([3]; 3 μM) [% @ 3 μM @ 60 min] | IC50 [5] [µM] | ED50 [6, 8] [mg/kg] | % inhibition of NOS activity, hncNOS ([3]; 5 μM) [% @ 5 μM @ 60 min] | inhibition at 33 µM [7] [%] | effect on LPS-induced increase in plasma nitrite/nitrate levels [6] | ED50, inhibition of LPS-induced increase in plasma nitrite/nitrate ([6]; 0.5-1 hours prior to LPS, plasma 5 hours after LPS, trihydrate hydrochloride) [mg/kg]
1 | Cl.N=C1CCCC[C@@H](CCCC[C@H](N)C(=O)O)N1.O.O.O [Example 2, (αS,2R)-α-aminohexahydro-7-imino-1H-azepine-2-hexanoic acid, trihydrate hydrochloride] | > 10 | > 150 | 0 | < 5 |  |  |  |  |  |  | 
2 | Cl.N=C1CCCC[C@H](CCCC[C@H](N)C(=O)O)N1.O.O.O [Example 4, (αS,2S)-α-aminohexahydro-7-imino-1H-azepine-2-hexanoic acid, trihydrate hydrochloride] | > 3 | > 15 |  | < 3 | 0 | < 10 | < 5 |  |  |  | 
3 | Cl.N=C1CCCC[C@H](CCCC[C@@H](N)C(=O)O)N1.O.O.O [Example 1, (αR,2S)-α-aminohexahydro-7-imino-1H-azepine-2-hexanoic acid, trihydrate hydrochloride] | > 3 | > 30 |  | < 3 |  | < 10 | < 3 | 0 | 11 | inhibited the LPS-induced increase in plasma nitrite/nitrate levels in a dose dependent manner | <3
